In PubChem BioAssay AID330 (DTP/NCI, 2004):
“And” between values parts separate entries of the source, which are not always exact repeats. Equal entries are not always repeated. Toxic doses and inconclusive results are not listed.

Tested on: P388 leukemia ip, CD2F1 mice, survival T/C
Experiment: NCI In Vivo Anticancer Drug Screen. Data for tumor model P388 Leukemia (intraperitoneal) in CD2F1 (CDF1) mice
Details: endpoint: median survival time, higher = longer survival
Outline: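 Mice carrying the transplanted tumor received test compound or vehicle. Survival was recorded in each group, and the value is the treated-group measurement divided by that of the vehicle-treated control group.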

[1] = dose: 60.0 mg/kg/injection, schedule: Q01DX005 (ip), vehicle: saline with Tween-80
[2] = dose: 120.0 mg/kg/injection, schedule: Q01DX005 (ip), vehicle: saline with Tween-80
[3] = dose: 240.0 mg/kg/injection, schedule: Q01DX005 (ip), vehicle: saline with Tween-80
[4] = dose: 50.0 mg/kg/injection, schedule: Q01DX005 (ip), vehicle: saline with Tween-80
[5] = dose: 100.0 mg/kg/injection, schedule: Q01DX005 (ip), vehicle: saline with Tween-80
[6] = dose: 200.0 mg/kg/injection, schedule: Q01DX005 (ip), vehicle: saline with Tween-80
[7] = dose: 50.0 mg/kg/injection, schedule: Q01DX009 (ip), vehicle: saline with Tween-80

SMILES: CCCCCCCNC1CCCc2cc(OC)ccc21 (centres undefined)
- T/C (dose: 50.0 mg/kg/injection, schedule: Q04DX003 (ip), vehicle: saline): 113 % of control
- T/C (dose: 100.0 mg/kg/injection, schedule: Q04DX003 (ip), vehicle: saline): 99 % of control

SMILES: CC(=O)Oc1cc(C)c(OC(C)=O)c(OC(C)=O)c1C
- T/C (dose: 100.0 mg/kg/injection, schedule: Q04DX002 (ip), vehicle: Klucel (hydroxypropylcellulose) (HPC)): 102 % of control
- T/C (dose: 200.0 mg/kg/injection, schedule: Q04DX002 (ip), vehicle: Klucel (hydroxypropylcellulose) (HPC)): 90 % of control

SMILES: O=c1cc(-c2ccccc2)[nH]c2[nH]n(-c3ccccc3)c(=O)c12
- T/C [1]: 110 % of control
- T/C [2]: 104 % of control
- T/C [3]: 94 % of control

SMILES: CCOC(=O)CC1(O)CSC(=C(C(=O)OCC)C(=O)OCC)N1c1ccccc1 (centres undefined)
- T/C [4]: 98 % of control
- T/C [5]: 91 % of control
- T/C [6]: 102 % of control

SMILES: COc1cc(/C=C2\SC(=O)N(C)C2=O)ccc1O
- T/C [7]: 104 % of control
- T/C (dose: 100.0 mg/kg/injection, schedule: Q01DX009 (ip), vehicle: saline with Tween-80): 90 % of control
- T/C (dose: 200.0 mg/kg/injection, schedule: Q01DX009 (ip), vehicle: saline with Tween-80): 87 % of control

SMILES: CC(C)NC(=O)c1ccc(CN(O)Cc2ccc(C(=O)NC(C)C)cc2)cc1
- T/C (dose: 25.0 mg/kg/injection, schedule: Q01DX009 (ip), vehicle: other): 99 % of control
- T/C (dose: 50.0 mg/kg/injection, schedule: Q01DX009 (ip), vehicle: other): 99 % of control
- T/C (dose: 100.0 mg/kg/injection, schedule: Q01DX009 (ip), vehicle: other): 88 % of control
- T/C (dose: 400.0 mg/kg/injection, schedule: Q01DX009 (ip), vehicle: other): 97 % of control

SMILES: Cc1cc(=O)oc2c(-c3ccccc3)n[nH]c(=O)c12
- T/C (dose: 60.0 mg/kg/injection, schedule: Q01DX005 (ip), vehicle: Klucel (hydroxypropylcellulose) (HPC)): 104 % of control
- T/C (dose: 120.0 mg/kg/injection, schedule: Q01DX005 (ip), vehicle: Klucel (hydroxypropylcellulose) (HPC)): 95 % of control
- T/C (dose: 240.0 mg/kg/injection, schedule: Q01DX005 (ip), vehicle: Klucel (hydroxypropylcellulose) (HPC)): 97 % of control

SMILES: CC(C)(C)NCc1cc(Nc2ccnc3cc(Cl)ccc23)cc(-c2ccc(Cl)cc2)c1O
- T/C (dose: 15.0 mg/kg/injection, schedule: Q01DX005 (ip), vehicle: saline with Tween-80): 100 % of control
- T/C (dose: 30.0 mg/kg/injection, schedule: Q01DX005 (ip), vehicle: saline with Tween-80): 100 % of control
- T/C [1]: 95 % of control and 98 % of control
- T/C [2]: 105 % of control
- T/C [3]: 97 % of control

SMILES: COC(=O)CN(CCCl)P1(=O)OCCCN1CCCl (centres undefined)
- T/C [1]: 97 % of control
- T/C [2]: 108 % of control

SMILES: N#CC(Cc1ccccc1)c1ccccc1 (centres undefined)
- T/C (dose: 25.0 mg/kg/injection, schedule: Q01DX009 (ip), vehicle: distilled water + Tween-80): 95 % of control
- T/C (dose: 50.0 mg/kg/injection, schedule: Q01DX009 (ip), vehicle: distilled water + Tween-80): 110 % of control
- T/C (dose: 100.0 mg/kg/injection, schedule: Q01DX009 (ip), vehicle: distilled water + Tween-80): 93 % of control

SMILES: CN1CCC(=C2c3ccccc3CC(O)c3sccc32)CC1 (centres undefined)
- T/C (dose: 100.0 mg/kg/injection, schedule: Q04DX003 (ip), vehicle: saline with Tween-80): 94 % of control
- T/C (dose: 200.0 mg/kg/injection, schedule: Q04DX003 (ip), vehicle: saline with Tween-80): 98 % of control

SMILES: Cc1cc(NS(=O)(=O)c2ccc(N=c3c4ccccc4n(Cc4ccccc4)c4ccccc34)cc2)no1
- T/C [4]: 98 % of control
- T/C [5]: 97 % of control
- T/C [6]: 88 % of control

SMILES: Cc1c(N=Nc2ccccc2[N+](=O)[O-])c(-c2ccccc2)nn1C(N)=S
- T/C (dose: 100.0 mg/kg/injection, schedule: Q01DX001 (ip), vehicle: Klucel (hydroxypropylcellulose) (HPC)): 114 % of control
- T/C (dose: 200.0 mg/kg/injection, schedule: Q01DX001 (ip), vehicle: Klucel (hydroxypropylcellulose) (HPC)): 114 % of control
- T/C (dose: 400.0 mg/kg/injection, schedule: Q01DX001 (ip), vehicle: Klucel (hydroxypropylcellulose) (HPC)): 108 % of control

SMILES: O=c1oc2c(Cl)cc(Cl)cc2cc1-c1nc2ccccc2[nH]1
- T/C (dose: 25.0 mg/kg/injection, schedule: Q01DX005 (ip), vehicle: Klucel (hydroxypropylcellulose) (HPC)): 92 % of control
- T/C (dose: 50.0 mg/kg/injection, schedule: Q01DX005 (ip), vehicle: Klucel (hydroxypropylcellulose) (HPC)): 92 % of control
- T/C (dose: 100.0 mg/kg/injection, schedule: Q01DX005 (ip), vehicle: Klucel (hydroxypropylcellulose) (HPC)): 92 % of control
- T/C (dose: 200.0 mg/kg/injection, schedule: Q01DX005 (ip), vehicle: Klucel (hydroxypropylcellulose) (HPC)): 92 % of control

SMILES: NCCCN1c2ccccc2Sc2ccc(Cl)cc21
- T/C (dose: 25.0 mg/kg/injection, schedule: Q01DX009 (ip), vehicle: saline with Tween-80): 99 % of control and 90 % of control
- T/C [7]: 113 % of control and 120 % of control
